{"source": "patent US8257734B2", "about": "“PQS and its conjugates as adjuvants and their uses in pharmaceutical compositions” (Helmhotlz-Zentrum Fuer Infektions-Forschung GmbH, priority 2005, dated 2012)", "key": {"β-gal-specific IgG": {"test_system": "β-gal-specific IgG", "test": "β-gal-specific serum IgG ELISA after immunization with β-gal plus adjuvant", "type": "in vivo, BALB/c (H-2d) mice", "details": "30 μg β-gal + 10 μg adjuvant, vs β-gal alone", "experimental": "Experimental protocol: six-eight weeks-old female BALB/c (H-2d) mice were purchased from Harlan Winkelmann GmbH (Borchen, Germany) and treated in accordance with local and European Community guidelines. Groups of 5 mice each were immunized on day 1, 14 and 28 with 30 μg of β-gal (Boehringer, Mannheim, Germany), alone or as an admixture with 10 μg PQS-PEG or with 10 μg PQS (structure of said compounds are shown in FIG. 1). For intranasal (i.n.) immunization, 10 μl were applied to each naris, whereas for the s.c. injection β-gal with or without c-PQS-PEG or PQS, respectively, was resuspended in a volume of 20 μl PBS per animal. Serum samples were collected at day 38 after immunization and stored at −20° C. prior to determination of β-gal-specific antibodies. 96-well Nunc-Immuno MaxiSorp assay plates (Nunc, Roskilde, Denmark) were coated with 100 μl of β-gal (Boehringer, Mannheim, Germany) at 5 μg/ml in 0.05 M carbonate buffer (pH 8.2) per well. Serial two-fold dilutions of sera in PBS with 1% BSA and 0.05% Tween 20 were added (100 μl/well), and plates incubated for 16 h at 37° C. After washing, biotinylated γ-chain-specific goat anti-mouse IgG (Sigma Chemie, Deisenhofen, Germany) was added, and plates were incubated for an additional 1 h at 37° C. After four washes, 100 μl of peroxidase-conjugated streptavidin (Pharmingen) was added to cells and plates incubated at 37° C. for 30 min."}, "β-gal-specific IgA": {"test_system": "β-gal-specific IgA", "test": "β-gal-specific IgA in lung and vaginal lavages after i.n. immunization", "type": "in vivo, BALB/c (H-2d) mice", "details": "day 38, vs β-gal alone", "experimental": "Experimental protocol: at day 38, mice were sacrificed and the final sampling was performed. Vaginal and lung lavages were obtained by flushing the organs with 1 ml of PBS supplemented with 50 mM EDTA, 0.1% BSA, and 10 mM PMSF. Lavages were then centrifuged to remove debris (10 min at 3000×g), and supernatant fluids were stored at −20° C. To determine the concentration of total IgA present in the lung and vaginal lavages, serial dilutions of the corresponding samples were incubated in microtiter plates that were previously coated with goat anti-mouse IgA (Sigma Chemie), as capture antibodies (100 μl/well). Serial dilutions of purified mouse IgA (Sigma Chemie) were used to generate a standard curve."}, "spleen cells": {"test_system": "spleen cells", "test": "[3H]thymidine proliferation of spleen cells from vaccinated mice restimulated in vitro with β-gal", "type": "in vivo, BALB/c (H-2d) mice", "details": "day 38, vs β-gal alone", "experimental": "Experimental protocol: Spleens were removed and pooled for analysis of cellular immune responses. […] Spleen cell suspensions were adjusted to 5×10^6 cells/ml in complete medium, cells were seeded with 100 μl per well in a flat-bottomed 96-well microtiter plate (Nunc) and plates were incubated for 4 days in the presence of different concentrations of soluble β-gal. That is, T cell mediated immune responses were investigated at day 38 by measuring the proliferation after in vitro restimulation with β-Gal of cells which have been recovered from spleens before. […] Each concentration was tested in quadruplicate. During the final 18 h of culture, 1 μCi of [3H]thymidine (Amersham International, Freiburg, Germany) was added to each well. […] The results are expressed as the arithmetic mean of [^3H]thymidine uptake in cpm.\nThirty eight days following vaccination, spleens cells were purified, re-stimulated in vitro in the presence of various amounts of β-galactosidase and their proliferative capacity was estimated by measuring the incorporation of [3H]thymidine into their DNA using a β-scintillation counter."}, "[1]": {"test_system": "β-gal antigen-specific IgG1", "test": "Isotyp ELISA of β-gal-specific IgG subclasses in sera of vaccinated mice", "type": "in vivo", "experimental": "Isotyp ELISA: 96-well Nunc-Immuno MaxiSorp assay plates (Nunc, Roskilde, Denmark) were coated with 100 μl of β-gal (Boehringer, Mannheim, Germany) at 5 μg/ml in 0.05 M carbonate buffer (pH 9.6) per well. Serial two-fold dilutions of sera or lavages in PBS with 1% BSA and 0.05% Tween 20 were added (100 μl/well), and plates incubated for 2 h at 37° C. After washing, biotin-conjugated rat anti-mouse IgG1 or IgG2a (Pharmingen, Hamburg, Germany) were added to determine IgG subclasses. Plates were incubated for an additional 1 h at 37° C. After four washes, 100 μl of peroxidase-conjugated streptavidin (Pharmingen) was added to cells and plates incubated at 37° C. for 30 min. […] To determine the concentration of IgG subclasses in serum, standard curves were obtained by coating the wells with an isotype-specific goat anti-mouse IgG, and then by incubating with purified mouse IgG1 or IgG2 antibodies (Dianova, Hamburg, Germany)."}, "[2]": {"test_system": "IFN-γ, IL-2, IL-4, IL-5, and TNFα", "test": "Cytometric Bead Array of cytokines in supernatants of in vitro re-stimulated spleen cells", "type": "in vivo, mice", "details": "vs β-Gal without additional adjuvant", "experimental": "Experimental protocol: Spleens from vaccinated mice were removed and pooled for analysis of cellular immune responses. The protocol for vaccination was identical to the protocol described in Example 2. Cells were grown in RPMI 1640 supplemented with 10% fetal calf serum, 100 U/ml of penicillin, 50 μg/ml of streptomycin, 5×10^−5 M 2-mercaptoethanol and 1 mM L-glutamine (GIBCO BRL, Karlsruhe, Germany) and maintained at 37° C. in a humidified 5% CO2 atmosphere. Spleen cell suspensions were adjusted to 5×10^6 cells/ml in complete medium, cells were seeded with 100 μl per well in a flat-bottomed 96-well microtiter plate (Nunc) and plates were incubated for 4 days in the presence of different concentrations of soluble β-gal.\nTo characterize the type of Th response stimulated following immunization, the content of IFN-γ, IL-2, IL-4, IL-5, and TNFα was measured in supernatants from in vitro re-stimulated spleen cells (FIG. 6A for s.c. immunization and FIG. 6B for i.n. immunization) by the Cytometric Bead Array. Culture supernatants from proliferating cells were collected on days 2 and 4, and stored at −70° C. […] The probes were analyzed subsequently by flow cytometry as described in the protocol of BD."}, "[3]": {"test_system": "splenic IFNγ, IL-2 and IL-4 producing cells", "test": "ELISPOT of cytokine producing spleen cells from vaccinated mice", "type": "in vivo", "details": "for splenic IL-2 producing cells / splenic IL-4 producing cells: restimulation with β-Gal protein", "experimental": "Experimental protocol: Spleens from vaccinated mice were removed and pooled for analysis of cellular immune responses. […] Spleen cell suspensions were adjusted to 5×10^6 cells/ml in complete medium, cells were seeded with 100 μl per well in a flat-bottomed 96-well microtiter plate (Nunc) and plates were incubated for 4 days in the presence of different concentrations of soluble β-gal.\nFor coating ELISPOT plates, said plates were incubated with 100 μl/well of purified capture antibody (10 μg/ml in coating buffer) at 4° C. overnight. […] The activated cells were seeded at 100 μl per well and incubate at 37° C., in a 5% CO2 humidified incubator for 24 hours or 48 h hours. After 5× washing steps with washing buffer and 1× step with distilled water, 100 μl/well of the biotinylated detection antibody with a concentration of 1 μg/ml in Assay Diluent was added and incubated at room temperature for 2 hrs. After further washing steps 100 μl/well of the AV-HRP at 1/1000 dilution in Assay Diluent was added and incubated at room temperature for 30 minutes. After further washing steps 100 μl/well of AEC Substrate Solution was added and developed at room temperature for 10-60 minutes until visible spots appeared. After washing steps with (3×) with 200 μl/well distilled water, the plates were air-dried and analyzed by counting the spots by an ELISPOT reader. Each concentration was tested in triplicates."}, "P815 target cells": {"test_system": "P815 target cells", "test": "Cr51 release cytotoxicity assay with effector cells of immunized mice", "type": "in vivo", "details": "mice immunized with β-gal/PQS subcutaneously; FIG. 8A; vs non-immunized mice", "experimental": "This system is based on the measurement of the Cr51 release of target cells due to specific lysis. In particular, with the amount of radioactivity detectable in the supernatant, the specific lysis can be calculated.\nPrior the Cytotoxicity Assay, P815 target cells were split and resuspended and adjusted to 2×10E6 cells/300 μl DMEM. The P815 cells were incubated with an MHC class I β-gal specific peptide for 1.5 h, while slightly agitating the cells every 15 min to improve binding between the peptide and the MHC class I molecule. After washing the cells, cells were resuspended in 150 μl medium without FCS and cultured for 2 h in the presence of 100 μci 51Chrom. Every 30 min, the cell suspension was agitated slightly. Subsequently, cells were washed twice in DMEM plus 10% FCS to remove unbound 51Cr. The cells were adjusted to […]. The effector cells were diluted serially (1×10E6, 0.5×10E6, 0.25×10E6, and 0.125×10E6). 50 μl of the murine target cells (10000 cells) were added to the effector cells, thus, the ratio of effector cells/target cells is 100:1, 50:1, 25:1, and 12.5:1, respectively. […] 25 or 30 μl, supernatant was taken from each of the wells and radioactivity according to standard practice determined. The specific lysis was calculated taking spontaneous lysis and maximal lysis into account."}, "[4]": {"test_system": "spleenocytes stimulated with ConA", "details": "cited from earlier work"}, "[5]": {"test_system": "human peripheral blood mononuclear cells", "details": "stimulated with the lectin ConA; cited from earlier work"}, "IL-2": {"test_system": "IL-2", "details": "cited from earlier work"}, "TNF-alpha": {"test_system": "TNF-alpha", "details": "cited from earlier work"}}, "note": "“Also recorded” adds a separate entry of the source.", "data": [{"molecule": "CCCCCCCC1=Nc2ccccc2C(=O)C1O", "note": "(centres unmarked) [PQS, 2-heptyl-3-hydroxy-4-quinolone]", "values": [{"measurement": "β-gal specific IgG titer in sera", "setting": "β-gal-specific IgG; i.n. immunization day 1, 14, 28, sera day 38", "value": "increased expression; also recorded: remarkably increased"}, {"measurement": "β-gal specific IgG titer in sera", "setting": "β-gal-specific IgG; s.c. (parenteral) immunization day 1, 14, 28", "value": "remarkably increased"}, {"measurement": "β-gal-specific IgA in lung lavage", "setting": "β-gal-specific IgA", "value": "slight increase"}, {"measurement": "β-gal-specific IgA in vaginal lavage", "setting": "β-gal-specific IgA", "value": "slight increase"}, {"measurement": "spleen cell proliferation ([3H]thymidine uptake) after β-gal restimulation", "setting": "spleen cells; i.n. immunization", "value": "efficient adjuvant; also recorded: efficient proliferative response at low amounts of antigen; also recorded: statistically significant increment"}, {"measurement": "spleen cell proliferation ([3H]thymidine uptake) after β-gal restimulation", "setting": "spleen cells; s.c. immunization", "value": "efficient adjuvant; also recorded: further increase in proliferation; also recorded: statistically significant increment"}, {"measurement": "antigen-specific antibody response", "setting": "[1]; i.n. immunization", "value": "strong antigen-specific antibody response"}, {"measurement": "antigen specific antibodies of the IgG1 subtype in sera", "setting": "[1]; intranasal administration, FIG. 5B", "value": "strongly increased"}, {"measurement": "expression of the IgG1 isotype in sera", "setting": "[1]; subcutaneous administration, FIG. 5A", "value": "strongly increased"}, {"measurement": "levels of IL-5", "setting": "[2]; i.n. route", "value": "significantly higher"}, {"measurement": "levels of IL-5", "setting": "[2]; s.c. route", "value": "significantly higher"}, {"measurement": "splenic IL-2 producing cells", "setting": "[3]; i.n. route", "value": "strong expression"}, {"measurement": "splenic IL-4 producing cells", "setting": "[3]; i.n. route", "value": "strong expression"}, {"measurement": "amounts of IFNγ expressing cells", "setting": "[3]; i.n. vaccination, compared with s.c. vaccination", "value": "lower to the level determined after s.c. vaccination"}, {"measurement": "expression of Th1 and Th2 cytokines after restimulation of spleen cells", "setting": "[3]; intranasal immunization (FIG. 7B)", "value": "increased expression"}, {"measurement": "number of splenic IFNγ producing cells", "setting": "[3]; parenteral (s.c.) vaccination, restimulation with MHC class I-restricted β-Gal peptide (CD8 epitope), FIG. 7A", "value": "increment"}, {"measurement": "splenic IL-2 producing cells", "setting": "[3]; s.c. route", "value": "strong expression"}, {"measurement": "splenic IL-4 producing cells", "setting": "[3]; s.c. route", "value": "strong expression"}, {"measurement": "expression of Th1 and Th2 cytokines after restimulation of spleen cells", "setting": "[3]; subcutaneous immunization (FIG. 7A)", "value": "increased expression"}, {"measurement": "specific lysis of peptide-pulsed target cells by β-gal restimulated CD8+ T-cells", "setting": "P815 target cells", "value": "demonstrates the cytotoxic capacity"}, {"measurement": "proliferation of spleenocytes", "setting": "[4]", "value": "inhibiting activity"}, {"measurement": "proliferation of human peripheral blood mononuclear cells", "setting": "[5]", "value": "proliferation inhibiting activity"}, {"measurement": "IL-2 release from PMCs", "setting": "IL-2; at low doses, stimulated with ConA", "value": "no effect"}, {"measurement": "IL-2 secretion", "setting": "IL-2", "value": "inhibited"}, {"measurement": "TNF-alpha production", "setting": "TNF-alpha; at high concentrations", "value": "enhances"}, {"measurement": "TNF-alpha release from PMCs", "setting": "TNF-alpha; at low doses, stimulated with LPS", "value": "no effect"}]}]}
